Each structure is given as a SMILES string.

T1 sequence (O75116 11-552): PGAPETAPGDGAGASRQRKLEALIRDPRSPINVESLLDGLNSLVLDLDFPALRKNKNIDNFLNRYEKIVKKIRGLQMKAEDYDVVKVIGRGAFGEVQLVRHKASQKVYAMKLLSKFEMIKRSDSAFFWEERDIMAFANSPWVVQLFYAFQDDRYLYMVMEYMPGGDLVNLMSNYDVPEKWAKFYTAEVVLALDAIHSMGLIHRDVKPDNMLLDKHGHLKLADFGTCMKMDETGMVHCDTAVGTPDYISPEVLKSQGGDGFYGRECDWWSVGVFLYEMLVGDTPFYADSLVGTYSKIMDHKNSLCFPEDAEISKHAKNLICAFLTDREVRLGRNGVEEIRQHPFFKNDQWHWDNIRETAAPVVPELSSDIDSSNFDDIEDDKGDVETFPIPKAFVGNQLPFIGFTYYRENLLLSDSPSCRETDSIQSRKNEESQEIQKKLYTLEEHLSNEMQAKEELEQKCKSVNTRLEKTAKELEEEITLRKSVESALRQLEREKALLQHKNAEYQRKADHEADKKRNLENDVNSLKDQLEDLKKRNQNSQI

This experiment addresses T1, human recombinant ROCK II (Homo sapiens, UniProt O75116).
T1 construct: recombinant human ROCK-II residues 11-552; His6 (N); purchased Upstate Ltd., Dundee, UK
Nature of the experiment: Determination of Rho kinase inhibition (Caliper peptide phosphorylation assay). Format: biochemical. The settings on record: negative decadal logarithm of the IC50; ROCK II residues 11-552, fluorescein peptide substrate, ATP, 60 min at 32° C.; salt or free base as obtained in the examples. On the procedure: Determination of Rho Kinase Inhibition
To measure Rho-kinase inhibition, IC50 values were determined according to the following protocol:
Active human recombinant ROCK II (N-terminal His6-tagged recombinant human ROCK-II residues 11-552) was purchased from Upstate Ltd., Dundee, UK. The peptide substrate, Fluorescein-AKRRRLSSLRA-COOH, was obtained from JPT Peptide Technologies, Berlin, Germany. Adenosine-5′-triphosphate (ATP), bovine serum albumine (BSA), dimethylsulphoxide (DMSO), 4-(2-Hydroxyethyl)piperazine-1-ethanesulfonic acid (Hepes), Brij-35 and dithiothreitol (DTT) were purchased from Sigma-Aldrich, Munich, Germany. Tris(hydroxymethyl)-aminomethane (Tris), magnesium chloride, NaOH, 1M HCl and EDTA were obtained from Merck Biosciences, Darmstadt, Germany. “Complete” protease inhibitor was from Roche Diagnostics, Mannheim, Germany.
Test compounds were diluted to the appropriate concentrations in buffer 1 (25 mM Tris-HCl, pH 7.4, 5 mM MgCl2, 2 mM DTT, 0.02% (w/v) BSA and 3% DMSO). The ROCK II enzyme was diluted to a concentration of 100 ng/ml in buffer 2 (25 mM Tris-HCl, pH 7.4, 5 mM MgCl2, 2 mM DTT and 0.02% (w/v) BSA). The peptide substrate and ATP were diluted to concentrations of 3 μM and 120 μM, respectively, in the buffer 2. Two μl of the compound solution were mixed with 2 μl of the diluted enzyme in a 384-well small volume microtiter plate (Greiner, Bio-One, Frickenhausen, Germany), and the kinase reaction was initiated by addition of 2 μl of the solution containing peptide substrate and ATP. After 60 min incubation at 32° C., the reaction was stopped by addition of 20 μl of a solution containing 100 mM Hepes-NaOH, pH 7.4, 0.015% (v/v) Brij-35, 45 mM EDTA and 0.227% chip coating reagent 1 (Caliper Lifescience Inc, Hopkinton, Mass.). Phosphorylation of the substrate peptide was then detected on a Caliper 3000 instrument essentially as described by Pommereau et al (J. Biomol. Screening 9(5), 409-416, 2004). Separation conditions were as follows: Pressure −1.3 psi, upstream voltage −1562 V, downstream voltage −500 V, sample sip time 200 ms. Positive controls (buffer 1 instead of compound) and negative controls (buffer 1 instead of compound and buffer 2 instead of ROCK II) were run in parallel on each plate.
The following products/compounds were tested in said assay by using the respective form (salt or free base) obtained as in the examples described above and the following activities were measured.
Usually IC50 stands for the concentration needed to halve the response being measured. As to `NC1(C(=O)N2CCC(Oc3cc4cc[nH]c(=O)c4cc3Cl)CC2)CC1` [Example 19, 6-[1-(1-Amino-cyclopropanecarbonyl)-piperidin-4-yloxy]-7-chloro-2H-isoquinolin-1-one], the IC50 was 1000 to 10000 nM.

As for `O=c1[nH]ccc2cc(OC3CNC3)c(Cl)cc12` [Example 58, 6-(Azetidin-3-yloxy)-7-chloro-2H-isoquinolin-1-one], the IC50 is at most 1000 nM.

In the case of `Cc1cc2c(=O)[nH]ccc2cc1OC1CCCNCC1` (stereo not drawn) [Example 68, 6-(Azepan-4-yloxy)-7-methyl-2H-isoquinolin-1-one], the IC50 was at most 1000 nM.

As for `N[C@@H](Cc1ccc(Cl)cc1)C(=O)N1CCC(Oc2cc3cc[nH]c(=O)c3cc2Cl)CC1` [Example 22, 6-{1-[(S)-2-Amino-3-(4-chloro-phenyl)-propionyl]-piperidin-4-yloxy}-7-chloro-2H-isoquinolin-1-one], the IC50 was at most 1000 nM.

With `O=C([C@@H]1CCCN1)N1CCC(Oc2cc3cc[nH]c(=O)c3cc2Cl)CC1` [Example 15, 7-Chloro-6-[1-((S)-pyrrolidine-2-carbonyl)-piperidin-4-yloxy]-2H-isoquinolin-1-one], the concentration for half-maximal inhibition (IC50) is at most 1000 nM.

For the compound `NCC(=O)N1CCC(Oc2ccc3c(=O)[nH]ccc3c2)CC1` [Example 24, 6-[1-(2-Amino-acetyl)-piperidin-4-yloxy]-2H-isoquinolin-1-one], the IC50 was at most 1000 nM.

Consider `O=c1[nH]ccc2cc(O[C@H]3CCN(Cc4ccccc4)C3)c(Cl)cc12` [Example 67, 6-((S)-1-Benzyl-pyrrolidin-3-yloxy)-7-chloro-2H-isoquinolin-1-one], for which the half-maximal inhibitory concentration (IC50) is 1000 to 10000 nM.

As for `CCCNC(=O)CN1CCC(Oc2cc3cc[nH]c(=O)c3cc2Cl)CC1` [Example 46, 2-[4-(7-Chloro-1-oxo-1,2-dihydro-isoquinolin-6-yloxy)-piperidin-1-yl]-N-propyl-acetamide], the IC50 is at most 1000 nM.

As to `O=c1[nH]ccc2cc(OC3CCCNCC3)c(Cl)cc12` (stereo not drawn) [Example 55, 6-(Azepan-4-yloxy)-7-chloro-2H-isoquinolin-1-one], the concentration for half-maximal inhibition (IC50) is at most 1000 nM.

`C[C@@H](N)C(=O)N1CCC(Oc2cc3cc[nH]c(=O)c3cc2Cl)CC1` [Example 11, 6-[1-(2-Amino-propionyl)-piperidin-4-yloxy]-7-chloro-2H-isoquinolin-1-one]: the half-inhibitory concentration (IC50) is at most 1000 nM.

Turning to `CN(C)CC(=O)N1CCC(Oc2cc3cc[nH]c(=O)c3cc2Cl)CC1` [Example 16, 7-Chloro-6-[1-(2-dimethylamino-acetyl)-piperidin-4-yloxy]-2H-isoquinolin-1-one], the half-maximal inhibitory concentration (IC50) is at most 1000 nM.

Regarding `O=c1[nH]ccc2cc(O[C@@H]3CCN(Cc4ccccc4)C3)c(Cl)cc12` [Example 66, 6-((R)-1-Benzyl-pyrrolidin-3-yloxy)-7-chloro-2H-isoquinolin-1-one], the IC50 was at most 1000 nM.

Regarding `Cc1cc2c(=O)[nH]ccc2cc1O[C@H]1CCNC1` [Example 70, 7-Methyl-6-((S)-pyrrolidin-3-yloxy)-2H-isoquinolin-1-one], the IC50 was at most 1000 nM.

On to `Cc1cc2c(=O)[nH]ccc2cc1OC[C@@H]1CCNC1` [Example 69, 7-Methyl-6-((R)-1-pyrrolidin-3-ylmethoxy)-2H-isoquinolin-1-one], for which the IC50 was at most 1000 nM.

Consider `Cc1c[nH]c(=O)c2ccc(OC3CCN(C[C@@H](N)CO)CC3)c(F)c12` [Example 75, 6-[1-((R)-2-Amino-3-hydroxy-propyl)-piperidin-4-yloxy]-5-fluoro-4-methyl-2H-isoquinolin-1-one], for which the concentration for half-maximal inhibition (IC50) is 1000 to 10000 nM.

Source of the values: patent publication US8278294B2, “Substituted isoquinoline and isoquinolinone derivatives as inhibitors of Rho-kinase” (Sanofi, priority 2006, dated 2012).
